Data from patent US9884868B2, “TGF-beta inhibitors” (Rigel Pharmaceuticals, Inc., priority 2015, dated 2018).

The molecules below were run against HIS-TGF-βR1 T204D (Homo sapiens (Human), UniProt P36897, T204D) (assay: HTRF probe displacement assay with HIS-TGF-βR1 T204D). Settings: not given.
Chain of HIS-TGF-βR1 T204D (P36897 34-503 T204D): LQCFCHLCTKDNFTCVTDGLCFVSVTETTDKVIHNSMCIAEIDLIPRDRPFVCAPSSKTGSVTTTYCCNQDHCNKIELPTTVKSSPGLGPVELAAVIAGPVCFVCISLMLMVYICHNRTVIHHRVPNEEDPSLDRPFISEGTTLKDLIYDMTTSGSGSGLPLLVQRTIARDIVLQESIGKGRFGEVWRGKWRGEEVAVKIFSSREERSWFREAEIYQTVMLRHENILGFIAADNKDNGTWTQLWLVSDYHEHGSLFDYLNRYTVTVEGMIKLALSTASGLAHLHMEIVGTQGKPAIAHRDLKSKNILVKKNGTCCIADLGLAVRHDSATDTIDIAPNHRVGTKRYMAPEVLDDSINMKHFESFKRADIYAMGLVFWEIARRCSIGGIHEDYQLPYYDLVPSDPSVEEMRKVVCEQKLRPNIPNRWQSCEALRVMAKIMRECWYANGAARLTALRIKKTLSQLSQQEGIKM

IC50 | SMILES
2.8 nM | NC(=O)c1cnc2ccc(-c3c(-c4ccc(F)c(Cl)c4)ncn3[C@H]3C[C@@H](O)C3)nn12 [140′, 6-(4-(3-chloro-4-fluorophenyl)-1-((1s,3s)-3-hydroxycyclobutyl)-1H-imidazol-5-yl)imidazo[1,2-b]pyridazine-3-carboxamide]

Same assay, conditions: read-out: TGFbr1 IC50; HTRF probe displacement, 1 nM HIS-TGF-βR1 T204D, 1 hour at room temperature

IC50 | SMILES
0.7 nM | CONC(=O)c1cnc2ccc(-c3c(-c4ccc(F)cc4)ncn3CC(F)F)nn12 [209′, 6-(1-(2,2-difluoroethyl)-4-(4-fluorophenyl)-1H-imidazol-5-yl)-N-methoxyimidazo[1,2-b]pyridazine-3-carboxamide]
1.1 nM | N=C(NO)c1cnc2ccc(-c3c(-c4ccc(F)cc4)ncn3CC(F)F)nn12 [Example 203′, 6-(1-(2,2-difluoroethyl)-4-(4-fluorophenyl)-1H-imidazol-5-yl)-N-hydroxyimidazo[1,2-b]pyridazine-3-carboximidamide]
1.1 nM | CCCn1cnc(-c2ccc(F)cc2)c1-c1ccc2ncc(C(N)=O)n2c1 [177′, 6-(4-(4-fluorophenyl)-1-propyl-1H-imidazol-5-yl)imidazo[1,2-b]pyridine-3-carboxamide]
1.2 nM | CC(C)(O)c1cnc2ccc(-c3c(-c4ccc(F)cc4)ncn3CC(F)F)nn12 [Example 204′, 2-(6-(1-(2,2-difluoroethyl)-4-(4-fluorophenyl)-1H-imidazol-5-yl)imidazo[1,2-b]pyridazin-3-yl)propan-2-ol]
9.3 nM | CC(=O)Nc1cnc2ccc(-c3c(-c4ccc(F)cc4)ncn3CC(F)F)nn12 [Example 212′, N-(6-(1-(2,2-difluoroethyl)-4-(4-fluorophenyl)-1H-imidazol-5-yl)imidazo[1,2-b]pyridazin-3-yl)acetamide]
0.7 nM | N#Cc1cnc2ccc(-c3c(-c4ccccc4O)ncn3CC(F)F)nn12 [248′, 6-(1-(2,2-difluoroethyl)-4-(2-hydroxyphenyl)-1H-imidazol-5-yl)imidazo[1,2-b]pyridazine-3-carbonitrile]
1.8 nM | CC[C@@H](CF)n1cnc(-c2ccc(F)cc2)c1-c1ccc2ncc(C#N)n2n1 [Example 103′, (S)-6-(1-(1-fluorobutan-2-yl)-4-(4-fluorophenyl)-1H-imidazol-5-yl)imidazo[1,2-b]pyridazine-3-carbonitrile]
1.6 nM | C=Cc1cnc2ccc(-c3c(-c4ccc(F)cc4)ncn3CC(F)F)nn12 [213E′, 6-(1-(2,2-difluoroethyl)-4-(4-fluorophenyl)-1H-imidazol-5-yl)-3-vinylimidazo[1,2-b]pyridazine]
356 nM | N#Cc1ccc(-c2ncn(CC(F)F)c2-c2ccc3ncc(C#N)n3n2)cc1 [258′, 6-(4-(4-cyanophenyl)-1-(2,2-difluoroethyl)-1H-imidazol-5-yl)imidazo[1,2-b]pyridazine-3-carbonitrile]
228 nM | Fc1ccc(-c2ncn([C@H]3CCC(F)(F)C3)c2-c2ccc3nccn3c2)cc1Cl [186′, (S)-6-(4-(3-chloro-4-fluorophenyl)-1-(3,3-difluorocyclopentyl)-1H-imidazol-5-yl)imidazo[1,2-a]pyridine]
2 nM | N#CC1(n2cnc(-c3ccc(F)cc3)c2-c2ccc3nccn3n2)CC1 [Example 188′, 1-(4-(4-fluorophenyl)-5-(imidazo[1,2-b]pyridazin-6-yl)-1H-imidazol-1-yl)cyclopropanecarbonitrile]
19 nM | N#CCCn1cnc(-c2ccc(F)cc2)c1-c1ccc2ncc(C#N)n2n1 [268′, 6-(1-(2-cyanoethyl)-4-(4-fluorophenyl)-1H-imidazol-5-yl)imidazo[1,2-b]pyridazine-3-carbonitrile]
30.1 nM | Fc1ccc(-c2ncn([C@@H]3CCC(F)(F)C3)c2-c2ccc3nccn3c2)cc1Cl [185′, (R)-6-(4-(3-chloro-4-fluorophenyl)-1-(3,3-difluorocyclopentyl)-1H-imidazol-5-yl)imidazo[1,2-a]pyridine]
21.6 nM | NC(=O)c1cnc2ccc(-c3c(-c4ccc(F)cc4)nc4n3CCNC4)cn12 [Example 290′, 6-(2-(4-fluorophenyl)-5,6,7,8-tetrahydroimidazo[1,2-60]pyrazin-3-yl)imidazo[1,2-a]pyridine-3-carboxamide]
6.8 nM | Fc1ccc(-c2ncn(CC(F)F)c2-c2ccc3nccn3c2)c(F)c1 [221′, 6-(1-(2,2-difluoroethyl)-4-(2,4-difluorophenyl)-1H-imidazol-5-yl)imidazo[1,2-a]pyridine]

Second part, the molecule before the results:

SMILES | IC50
CC1(n2cnc(-c3ccc(F)c(Cl)c3)c2-c2ccc3ncc(C#N)n3n2)CC1 [41′, 6-(4-(3-chloro-4-fluorophenyl)-1-(1-methylcyclopropyl)-1H-imidazol-5-yl)imidazo[1,2-b]pyridazine-3-carbonitrile] | 0.9 nM
CCC(O)Cn1cnc(-c2ccc(F)cc2)c1-c1ccc2ncc(C#N)n2c1 (centres unmarked) [70′, 6-(4-(4-fluorophenyl)-1-(2-hydroxybutyl)-1H-imidazol-5-yl)imidazo[1,2-a]pyridine-3-carbonitrile] | 123 nM
NC(=O)c1cnc2ccc(-c3c(-c4ccc(F)cc4)ncn3CCCF)cn12 [162′, 6-(4-(4-fluorophenyl)-1-(3-fluoropropyl)-1H-imidazol-5-yl)imidazo[1,2-a]pyridine-3-carboxamide] | 1.9 nM
CC(C)CCn1cnc(-c2ccc(F)c(Cl)c2)c1-c1ccc2ncc(C(N)=O)n2n1 [148′, 6-(4-(3-chloro-4-fluorophenyl)-1-isopentyl-1H-imidazol-5-yl)imidazo[1,2-b]pyridazine-3-carboxamide] | 1.1 nM
CC(CCO)n1cnc(-c2ccc(F)cc2)c1-c1ccc2ncc(C#N)n2c1 (centres unmarked) [80′, 6-(4-(4-fluorophenyl)-1-(4-hydroxybutan-2-yl)-1H-imidazol-5-yl)imidazo[1,2-a]pyridine-3-carbonitrile] | 31 nM
N#Cc1cnc2ccc(-c3c(-c4ccc(F)cc4)ncn3C3COC3)cn12 [78′, 6-(4-(4-fluorophenyl)-1-(oxetan-3-yl)-1H-imidazol-5-yl)imidazo[1,2-a]pyridine-3-carbonitrile] | 568 nM
NC(=O)c1cnc2ccc(-c3c(-c4ccc(F)cc4)ncn3C3CCCC3)cn12 [159′, 6-(1-cyclopentyl-4-(4-fluorophenyl)-1H-imidazol-5-yl)imidazo[1,2-a]pyridine-3-carboxamide] | 0.8 nM
N#Cc1cnc2ccc(-c3c(-c4ccc(F)c(Cl)c4)ncn3CCCF)nn12 [54′, 6-(4-(3-chloro-4-fluorophenyl)-1-(3-fluoropropyl)-1H-imidazol-5-yl)imidazo[1,2-b]pyridazine-3-carbonitrile] | 0.8 nM
N#Cc1cnc2ccc(-c3c(-c4ccc(F)cc4)ncn3C[C@H](O)CO)cn12 [92′, (S)-6-(1-(2,3-dihydroxypropyl)-4-(4-fluorophenyl)-1H-imidazol-5-yl)imidazo[1,2-a]pyridine-3-carbonitrile] | 266 nM
N#Cc1cnc2ccc(-c3c(-c4ccc(F)c(Cl)c4)ncn3C3CC3)nn12 [36′, 6-(4-(3-chloro-4-fluorophenyl)-1-cyclopropyl-1H-imidazol-5-yl)imidazo[1,2-b]pyridazine-3-carbonitrile] | 1.3 nM
N#Cc1cnc2ccc(-c3c(-c4ccc(F)c(Cl)c4)ncn3CCCl)nn12 [60′, 6-(4-(3-chloro-4-fluorophenyl)-1-(2-chloroethyl)-1H-imidazol-5-yl)imidazo[1,2-b]pyridazine-3-carbonitrile] | 0.9 nM
CC(O)Cn1cnc(-c2ccc(F)cc2)c1-c1ccc2ncc(C(N)=O)n2c1 (centres unmarked) [176′, 6-(4-(4-fluorophenyl)-1-(2-hydroxypropyl)-1H-imidazol-5-yl)imidazo[1,2-a]pyridine-3-carboxamide] | 5.2 nM
CCn1cnc(-c2ccc(F)cc2)c1-c1ccc2ncc(C(N)=O)n2c1 [160′, 6-(1-ethyl-4-(4-fluorophenyl)-1H-imidazol-5-yl)imidazo[1,2-a]pyridine-3-carboxamide] | 0.8 nM
CC(F)(F)Cn1cnc(-c2ccc(F)c(Cl)c2)c1-c1ccc2ncc(C(N)=O)n2n1 [151′, 6-(4-(3-chloro-4-fluorophenyl)-1-(2,2-difluoropropyl)-1H-imidazol-5-yl)imidazo[1,2-b]pyridazine-3-carboxamide] | 0.6 nM
CCC(CO)n1cnc(-c2ccc(F)cc2)c1-c1ccc2ncc(C#N)n2c1 (centres unmarked) [83′, 6-(4-(4-fluorophenyl)-1-(1-hydroxybutan-2-yl)-1H-imidazol-5-yl)imidazo[1,2-a]pyridine-3-carbonitrile] | 189 nM
N#Cc1cnc2ccc(-c3c(-c4ccc(F)c(Cl)c4)ncn3CCCCl)nn12 [44′, 6-(4-(3-chloro-4-fluorophenyl)-1-(3-chloropropyl)-1H-imidazol-5-yl)imidazo[1,2-b]pyridazine-3-carbonitrile] | 1.2 nM
CC(C)n1cnc(-c2ccc(F)c(Cl)c2)c1-c1ccc2ncc(C(N)=O)n2n1 [116′, 6-(4-(3-chloro-4-fluorophenyl)-1-isopropyl-1H-imidazol-5-yl)imidazo[1,2-b]pyridazine-3-carboxamide] | 0.9 nM
CC(CO)n1cnc(-c2ccc(F)cc2)c1-c1ccc2ncc(C(N)=O)n2c1 (centres unmarked) [152′, 6-(4-(4-fluorophenyl)-1-(1-hydroxypropan-2-yl)-1H-imidazol-5-yl)imidazo[1,2-a]pyridine-3-carboxamide] | 1.1 nM
CC(C)n1cnc(-c2ccc(F)cc2)c1-c1ccc2ncc(C#N)n2c1 [79′, 6-(4-(4-fluorophenyl)-1-isopropyl-1H-imidazol-5-yl)imidazo[1,2-a]pyridine-3-carbonitrile] | 55.3 nM
NC(=O)c1cnc2ccc(-c3c(-c4ccc(F)cc4)ncn3CC3CCC3)cn12 [157′, 6-(1-(cyclobutylmethyl)-4-(4-fluorophenyl)-1H-imidazol-5-yl)imidazo[1,2-a]pyridine-3-carboxamide] | 0.8 nM
CC(C)(O)Cn1cnc(-c2ccc(F)cc2)c1-c1ccc2ncc(C(N)=O)n2c1 [166′, 6-(4-(4-fluorophenyl)-1-(2-hydroxy-2-methylpropyl)-1H-imidazol-5-yl)imidazo[1,2-a]pyridine-3-carboxamide] | 9.1 nM
CC(F)(F)Cn1cnc(-c2ccc(F)cc2)c1-c1ccc2ncc(C#N)n2n1 [22′, 6-(1-(2,2-difluoropropyl)-4-(4-fluorophenyl)-1H-imidazol-5-yl)imidazo[1,2-b]pyridazine-3-carbonitrile] | 1.2 nM
